This is an account of results in patent US7666879B2, “Imidazo[1,2-A]pyridine compounds as VEGF-R2 inhibitors” (Eli Lilly and Company, priority 2005, dated 2010).

Test [1] concerns the target T1, VEGFR2 (KDR) (Homo sapiens, UniProt P35968).
T1 construct: The isolated catalytic domain (Amino Acids 807-1356) of VEGFR2; 6xHis (N); made in house; host or cells: Sf9 insect cells (baculovirus, pFASTBac-HIS)
The experiment in a line: KDR-CD in vitro autophosphorylation kinase assay. It is filed as biochemical. As to conditions: 30 minute preincubation of compound and enzyme; average of at least two separate determinations; 1 μM ATP. The protocol: The following assay is performed to measure the IC50 values of inhibition of phosphorylation of VEGF-R2 with compounds of the present invention.
Autophosphorylation Enzyme Assay
A. VEGFR2 (KDR) cloning and purification.
The isolated catalytic domain (Amino Acids 807-1356) of VEGFR2 (KDR-CD, cloned from a human heart cDNA library) is cloned by standard PCR procedures (pCR-Script to make plasmid P340) as a BamHI/HindIII fragment using the following primers: Upper: 5′-[…]-3′ and Lower: 5′-[…]-3′, its nucleotide sequence is verified and it is subcloned into the pFASTBac-HIS™ vector system (Gibco-BRL) (to give plasmid B344) for baculovirus expression. (Carroll, et al., J. Biol. Chem, 268, 12837-42 (1993). KDR-CD is expressed as an N-terminal 6×HIS fusion protein in Sf9 cells (Gibco-BRL) and purified according to standard affinity chromatography protocols (For example, Amersham Pharmacia Biotech: Affinity Chromatography Principles and Methods #18-1022-29). Briefly, 15-25 g pellets are lysed in lysis buffer (50 mM Tris pH 7.5, 150 mM NaCl, 0.5% NP40 (CalbioChem) with freshly added 20 mM -mercaptoethanol, 10 mM imidazole, 1 mM PMSF(protease inhibitor (phenylmethanesulfonyl fluoride) from Sigma), 1×EDTA-free complete protease inhibitor (Boehringer Mannheim)) on ice for 30 minutes. The cell lysates are cleared by centrifugation at 30,000 g for 20 minutes at 4° C., filtered through a […] and applied to a NiNTA™ column (Qiagen). Unbound protein is removed with successive RIPA buffer washes (50 mM Tris pH 7.5, 150 mM NaCl, 1% NP40, 1 mM EDTA, 0.25% sodium deoxycholate, 20 mM -mercaptoethanol), lysis buffer washes and finally 1× kinase buffer (KB) washes (100 mM HEPES pH 7.5, 10 mM MnCl2, 5 mM -mercaptoethanol). KDR protein is eluted in 1× KB containing a linear gradient of 200 mM imidazole over 10 column volumes. The peak fractions (based on a SDS-PAGE gel analysis) are combined, concentrated by Centricon™ to ˜1 mg/mL and desalted over an HR26/10 desalting column (Amersham Pharmacia) in 1× KB. This KDR prep is estimated to be ˜40% pure with only KDR tyrosine kinase activity detectable by anti-phosphotyrosine western analysis following the in vitro autophosphorylation reaction.
B. KDR-CD In Vitro Autophosphorylation Kinase Assay
Kinase reactions contain 1 μg total protein in 40 μL reaction volume containing 4% (v/v) DMSO final concentration, 1 μM ATP, 1 uCi/rxn ^33P-ATP (from NEN) in 1×KB. A compound dilution series of 20 μM to 1.0 nM is added to the above reaction to determine compound activity; test compound may be pre-incubated with KDR enzyme for up to 30 minutes at 30° C. prior to addition of the radiolabel. The radiolabeling reaction is carried out at 30° C. for 20 minutes before adding 100 μL 25% TCA with 3 mM ATP to stop the reaction, then precipitated with 50 μL 1 mg/mL BSA. The quenched reactions are transferred to MultiScreen™-FC plates (Millipore) and incubated for 1 hour at room temperature. The plates are filtered, washed 3× with 250 μL 10% TCA and blotted dry. MicroScint™20 (Packard) is added and the plate is counted on a Wallac Microbeta™. Dougher-Vermazen, M. et al., Biochem Biophys Res Commun 205(1): 728-738 (1994). The IC50 values are calculated from a logistic 4-parameter curve fit.
All values are determined using a 30 minute preincubation of compound and enzyme prior to initiating the labeling reaction and represent the average of at least two separate determinations: […]

The subject of test [2] is PC-3 human prostate adenocarcinoma cells. The experiment in a line: In vivo efficacy in PC-3 prostate tumor xenografts. Also on record: species or system mice; key to Mean Tumor Volume: mg, volume calculated as l×w^2×0.536 from caliper diameters. As to conditions: for Signif. (tumor volume vs vehicle control, two-way ANOVA) / Mean Tumor Volume: oral gavage. The method, then:
In Vivo Efficacy in PC-3 Prostate Tumor Xenografts
Male SCID mice (Fox Chase, Taconic laboratories) are implanted s.c. in the rear flank with 0.2 mL of a cell suspension prepared in serum-free media containing 5×10^6 PC-3 human prostate adenocarcinoma cells (obtained from ATCC). Example 130 is prepared as a suspension in 1% CMC/0.25% Tween 80 and administered by oral gavage for 21 days beginning after tumors reach approximately 150-200 mg (volume calculated by l×w^2×0.536 where l is the larger and w is the smaller of perpendicular diameters determined by caliper measurement). Example 130 is administered twice daily (12 hours apart) for the 15, 7.5, and 3.75 mg/kg doses while the 30 mg/kg dose is given once daily. Groups consists of 8 mice each and one group receives 0.2 mL of the CMC/Tween vehicle twice daily as a control.

T1 sequence (P35968 807-1356): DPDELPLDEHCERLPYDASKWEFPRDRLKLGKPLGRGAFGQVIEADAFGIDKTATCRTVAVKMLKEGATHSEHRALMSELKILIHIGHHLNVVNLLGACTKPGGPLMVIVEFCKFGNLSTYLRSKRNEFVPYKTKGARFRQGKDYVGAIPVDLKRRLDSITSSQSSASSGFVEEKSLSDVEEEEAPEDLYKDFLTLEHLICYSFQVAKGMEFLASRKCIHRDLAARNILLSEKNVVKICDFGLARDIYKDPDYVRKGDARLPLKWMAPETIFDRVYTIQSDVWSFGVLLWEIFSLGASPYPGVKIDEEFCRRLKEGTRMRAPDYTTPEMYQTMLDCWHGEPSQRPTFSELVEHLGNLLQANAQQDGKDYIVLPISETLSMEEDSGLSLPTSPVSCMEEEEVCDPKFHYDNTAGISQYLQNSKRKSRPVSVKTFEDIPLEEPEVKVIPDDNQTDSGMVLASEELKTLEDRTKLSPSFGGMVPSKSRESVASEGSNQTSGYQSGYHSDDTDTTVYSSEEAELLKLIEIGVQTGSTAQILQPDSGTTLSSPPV

Turning to `CC(C)(C)c1cnc(NC(=O)NCc2ccc(-c3cnc4cc(-c5ccncc5)ccn34)cc2)s1` [Example 39, 1-(5-tert-Butyl-thiazol-2-yl)-3-[4-(7-pyridin-4-yl-imidazo[1,2-a]pyridin-3-yl)-benzyl]-urea, methane sulfonate], half-maximal inhibition in test [1] (IC50) required 0.028 µM.

For the molecule `CC(C)(C)c1cc(NC(=O)Nc2ccc(-c3cnc4cc(-c5ccncc5)ccn34)cc2F)no1` [Example 130, 1-(5-tert-Butyl-isoxazol-3-yl)-3-[2-fluoro-4-(7-pyridin-4-yl-imidazo[1,2-a]pyridin-3-yl)-phenyl]-urea], the IC50 in test [1] came to 0.042 µM. Further, the “Signif. (tumor volume vs vehicle control, two-way ANOVA)” value is reported as “** (**: 0.001 < p <= 0.01)” in test [2] (3.75 mg/kg twice daily, Day 55); “*** (***: p <= 0.001)” in test [2] (3.75 mg/kg twice daily, Day 57); “*** (***: p <= 0.001)” in test [2] (7.5 mg/kg twice daily, Day 55); “*** (***: p <= 0.001)” in test [2] (7.5 mg/kg twice daily, Day 57); “*** (***: p <= 0.001)” in test [2] (15 mg/kg twice daily, Day 55); “*** (***: p <= 0.001)” in test [2] (15 mg/kg twice daily, Day 57). Besides, the “Signif. (tumor volume vs vehicle control, two-way ANOVA)” value is on record as “*** (***: p <= 0.001)” in test [2] (30 mg/kg once daily, Day 55) and “*** (***: p <= 0.001)” in test [2] (30 mg/kg once daily, Day 57). Besides, the “Mean Tumor Volume” value in test [2] (3.75 mg/kg twice daily, Day 55, PC-3 xenograft in male SCID mice) is on record as 268.1; in test [2] (3.75 mg/kg twice daily, Day 57, PC-3 xenograft in male SCID mice), 310.1; in test [2] (7.5 mg/kg twice daily, Day 55, PC-3 xenograft in male SCID mice) it was 100.8; in test [2] (7.5 mg/kg twice daily, Day 57, PC-3 xenograft in male SCID mice), 86.3; in test [2] (15 mg/kg twice daily, Day 55, PC-3 xenograft in male SCID mice), 67.7; in test [2] (15 mg/kg twice daily, Day 57, PC-3 xenograft in male SCID mice) it was 62.2. For the same molecule, the “Mean Tumor Volume” value in test [2] (30 mg/kg once daily, Day 55, PC-3 xenograft in male SCID mice) is reported as 95.7; in test [2] (30 mg/kg once daily, Day 57, PC-3 xenograft in male SCID mice) it was 86.8. In addition, in test [2] (male SCID mice, oral gavage for 21 days, 15, 7.5, 3.75 mg/kg twice daily, 30 mg/kg once daily, two-way ANOVA), the “tumor volume, treatment groups versus control group at study termination” value was “statistically different from the control group (p<0.001)”.

The molecule `O=C(Cc1ccc(-c2cnc3cc(-c4ccncc4)ccn23)cc1)Nc1cccc(C(F)(F)F)c1` [Example 173, 2-[4-(7-Pyridin-4-yl-imidazo[1,2-a]pyridin-3-yl)-phenyl]-N-(3-trifluoromethyl-phenyl)-acetamide] had an IC50 in test [1] of 0.026 µM.

The molecule `CC(C)(C)c1cc(NC(=O)Cc2ccc(-c3cnc4cc(-c5ccc(S(C)(=O)=O)cc5)ccn34)cc2F)no1` [Example 196, N-(5-tert-Butyl-isoxazol-3-yl)-2-{2-fluoro-4-[7-(4-methanesulfonyl-phenyl)-imidazo[1,2-a]pyridin-3-yl]-phenyl}-acetamide] came in with an IC50 in test [1] of 0.106 µM.

With `CC(C)(C)c1cc(NC(=O)Cc2ccc(-c3cnc4cc(-c5ccncc5)ccn34)cc2)ncn1` [Example 289, N-(6-tert-Butyl-pyrimidin-4-yl)-2-[4-(7-pyridin-4-yl-imidazo[1,2-a]pyridin-3-yl)-phenyl]-acetamide], in test [1], the IC50 came out at 0.041 µM.

Molecule `CC(C)(C)c1cc(NC(=O)Cc2ccc(-c3cnc4cc(-c5cn[nH]c5)ccn34)cc2)no1` [Example 303, N-(5-tert-Butyl-isoxazol-3-yl)-2-{4-[7-(1H-pyrazol-4-yl)-imidazo[1,2-a]pyridin-3-yl]-phenyl}-acetamide] yielded an IC50 in test [1] of 0.046 µM.

One may read the IC50 as the concentration that gives 50% inhibition.
